These results are taken from US20240254119A1 (THIRD HARMONIC BIO, INC., priority 2022, published 2024).

For series [1], the target named is T1, CSF-1R (Homo sapiens, UniProt P07333).
T1 construct: purchased Invitrogen PV3249 (lot 662393N)
The experiment in a line: HTRF biochemical assay, CSF-1R. The settings on record: Table 4. In a few lines: (§1)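 Kinase phosphorylation of a FAM-labelled peptide substrate, with ATP and Mn^2+ cofactors, run for 3 h at 25 °C, with optional enzyme–compound pre-incubation. Reactions were quenched with EDTA, and phosphopeptide was detected by anti-phosphotyrosine antibody HTRF.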

The target of series [2] is T2, PDGFRα (Homo sapiens, UniProt P16234).
T2 construct: purchased Millipore 14-467 (lot 26321_ACTI)
Kind of series: HTRF biochemical assay, PDGFRα. The settings on record: Table 4, read-out: PDFGRα Biochemical IC50 avg. In a few lines: as §1

For series [3], the system named is Caco-2 cells. Kind of series: Caco-2 permeability assay. Type of series: in vitro ADME. How it is done: Exemplary compounds were tested for cell permeability in Caco-2, MDCKII-MDR1 and MDCKII-BCRP cell lines with efflux transporter engagement inferred from the efflux ratios determined. Procedures and results are described below. […] This feature of certain compounds is in part due to efflux transporter engagement. See, for instance, exemplary such compounds included in data tables below.
The transport buffer in the study was HBSS with 10.0 mM HEPES at pH 7.40±0.05. Test compound was tested at 2.00 μM bi-directionally in duplicate. Digoxin was tested at 10.0 μM bi-directionally in duplicate, while nadolol and metoprolol were tested at 2.00 μM in A to B direction in duplicate. Final DMSO concentration was adjusted to less than 1%. The plate was incubated for 2 hours in CO2 incubator at 37±1° C., with 5% CO2 at saturated humidity without shaking. And all samples after mixed with acetonitrile containing internal standard were centrifuged at 3200×g for 10 min. For nadolol and metoprolol, 200 μL supernatant solution was diluted with 600 μL ultra-pure water for LC-MS/MS analysis. For digoxin and test compounds, 200 μL supernatant solution was diluted with 200 μL ultra-pure water for LC-MS/MS analysis. Concentrations of test and control compounds in starting solution, donor solution, and receiver solution were quantified by LC-MS/MS methodologies, using peak area ratio of analyte/internal standard.
After transport assay, lucifer yellow rejection assay was applied to determine the Caco-2 cell monolayer integrity.
[…] And permeation of lucifer yellow through the monolayer was measured to evaluate the cellular integrity.
The apparent permeability coefficient Papp (cm/s) was calculated using the equation: Papp=(dCr/dt)×Vr/(A×C0), where dCr/dt is the cumulative concentration of compound in the receiver chamber as a function of time (μM/s); Vr is the solution volume in the receiver chamber (0.075 mL on the apical side, 0.25 mL on the basolateral side); A is the surface area for the transport, i.e. 0.0804 cm^2 for the area of the monolayer; C0 is the initial concentration in the donor chamber (μM).
The efflux ratio was calculated using the equation: Efflux Ratio=Papp (BA)/Papp(AB).
Percent recovery was calculated using the equation: % Solution Recovery=100×[(Vr×Cr)+(Vd×Cd)]/(Vd×C0), where Vd is the volume in the donor chambers (0.075 mL on the apical side, 0.25 mL on the basolateral side); Cd and Cr are the final concentrations of transport compound in donor and receiver chambers, respectively.

The subject of series [4] is CYP3A4. The experiment in a line: Hepatocyte CYP induction assay, CYP3A4 gene expression. Type of series: in vitro ADME. The settings on record: human hepatocytes. In outline: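 Cryopreserved human hepatocytes in Matrigel sandwich culture were dosed in 0.1% DMSO for 48 h at 37 °C, with medium and compound renewed at 24 h, in triplicate; rifampicin was the positive control. CYP3A4 mRNA was measured by qPCR, normalized to 18S rRNA, and fold change (2^−ΔΔCt vs vehicle) […].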

T1 sequence (P07333 20-972): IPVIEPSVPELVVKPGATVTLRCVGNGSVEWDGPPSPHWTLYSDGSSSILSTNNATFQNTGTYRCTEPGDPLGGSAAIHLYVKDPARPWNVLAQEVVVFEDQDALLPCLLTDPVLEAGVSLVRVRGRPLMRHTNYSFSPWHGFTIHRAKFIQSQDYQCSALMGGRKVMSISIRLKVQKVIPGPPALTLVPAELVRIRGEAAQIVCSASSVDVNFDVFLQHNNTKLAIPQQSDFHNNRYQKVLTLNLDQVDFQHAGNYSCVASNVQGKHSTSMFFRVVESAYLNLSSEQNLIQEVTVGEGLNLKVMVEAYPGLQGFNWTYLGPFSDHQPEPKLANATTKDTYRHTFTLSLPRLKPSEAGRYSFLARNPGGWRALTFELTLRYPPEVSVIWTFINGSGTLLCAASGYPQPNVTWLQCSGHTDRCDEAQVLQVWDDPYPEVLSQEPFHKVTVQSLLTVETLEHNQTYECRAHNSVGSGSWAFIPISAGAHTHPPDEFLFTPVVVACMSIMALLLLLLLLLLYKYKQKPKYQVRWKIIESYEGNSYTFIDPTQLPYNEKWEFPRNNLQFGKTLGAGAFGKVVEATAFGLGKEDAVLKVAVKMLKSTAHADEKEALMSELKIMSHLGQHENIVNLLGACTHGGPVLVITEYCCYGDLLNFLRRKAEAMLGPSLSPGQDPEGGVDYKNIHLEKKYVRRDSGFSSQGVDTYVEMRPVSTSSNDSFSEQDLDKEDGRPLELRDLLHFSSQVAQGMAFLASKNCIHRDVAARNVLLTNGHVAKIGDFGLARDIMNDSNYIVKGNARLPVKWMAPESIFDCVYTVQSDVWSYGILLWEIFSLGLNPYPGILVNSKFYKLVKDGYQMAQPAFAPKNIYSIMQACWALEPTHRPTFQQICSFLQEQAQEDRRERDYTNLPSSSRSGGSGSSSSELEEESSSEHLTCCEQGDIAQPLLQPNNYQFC
T2 sequence (P16234 24-1089): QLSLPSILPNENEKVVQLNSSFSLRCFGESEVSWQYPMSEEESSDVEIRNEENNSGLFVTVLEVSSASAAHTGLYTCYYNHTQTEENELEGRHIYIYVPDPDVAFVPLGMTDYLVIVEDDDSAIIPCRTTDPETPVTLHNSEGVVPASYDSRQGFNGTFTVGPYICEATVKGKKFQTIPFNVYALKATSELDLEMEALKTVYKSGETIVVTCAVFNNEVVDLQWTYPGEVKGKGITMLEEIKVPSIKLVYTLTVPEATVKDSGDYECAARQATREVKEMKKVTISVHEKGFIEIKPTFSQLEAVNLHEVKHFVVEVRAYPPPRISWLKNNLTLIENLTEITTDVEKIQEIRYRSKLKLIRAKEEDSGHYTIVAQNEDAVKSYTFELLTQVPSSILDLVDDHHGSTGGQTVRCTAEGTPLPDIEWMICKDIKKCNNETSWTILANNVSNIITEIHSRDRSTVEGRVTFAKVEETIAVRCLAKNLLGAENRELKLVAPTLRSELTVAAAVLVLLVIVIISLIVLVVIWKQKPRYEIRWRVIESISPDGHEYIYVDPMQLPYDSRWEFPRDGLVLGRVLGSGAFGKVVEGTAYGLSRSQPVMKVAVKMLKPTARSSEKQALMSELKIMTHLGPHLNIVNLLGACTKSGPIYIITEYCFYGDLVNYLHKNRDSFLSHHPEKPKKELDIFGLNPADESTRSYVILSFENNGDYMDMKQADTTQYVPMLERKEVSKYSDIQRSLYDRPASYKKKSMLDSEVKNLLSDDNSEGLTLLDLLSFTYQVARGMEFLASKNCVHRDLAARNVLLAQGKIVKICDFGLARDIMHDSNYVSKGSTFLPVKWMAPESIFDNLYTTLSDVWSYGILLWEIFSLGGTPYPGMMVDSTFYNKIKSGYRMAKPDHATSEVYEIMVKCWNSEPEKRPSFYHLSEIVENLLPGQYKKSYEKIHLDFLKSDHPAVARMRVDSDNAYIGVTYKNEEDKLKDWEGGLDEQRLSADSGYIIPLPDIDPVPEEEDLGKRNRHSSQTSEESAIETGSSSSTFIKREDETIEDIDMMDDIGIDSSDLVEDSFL

On to `Cc1ccc(-c2noc([C@H]3C[C@@H]3F)n2)cc1NC(=O)c1cnc2cc(OC(C)C)ccn12` [Compound I-88], for which the IC50 in series [1] is no more than 50 nM; in series [2], 500 to 5000 nM. In series [3] (Caco-2), the “Caco-2: Efflux Ratio” value is reported as 0.79. For the same molecule, the “Caco-2: Papp A-B” value in series [3] (Caco-2, apical to basolateral) is given as 6.24 10^−6 cm/s. The “CYP 3A4 induction mRNA: Mean fold at 10 μM” value in series [4] (donor five), in series [4] (donor four) and in series [4] (donor one) was “+ (induction fold of less than or equal to 2-fold)” in each case.
